Laboratory results from ChEMBL document CHEMBL3414511, “Synthesis of a novel class of substituted benzothiophene or benzofuran derivatives as BMP-2 up-regulators and evaluation of the BMP-2-up-regulating effects in vitro and the effects on glucocorticoid-induced osteoporosis in rats” (Eur J Med Chem, 2015).
Calls of active or inactive are those of the source. The calls are words filed in the database; no cut-off is given here.

Assays:
Rattus norvegicus [1] = assay: Toxicity in glucocorticoid-induced Wistar rat osteoporosis model assessed as white blood cells at 30 mg/kg/day, po administered six times a week for 3 months (reference value: 6.28 +/- 2.78 x 10^9/L); format: organism-based; set-up: route oral; conditions: in vivo
Rattus norvegicus [2] = assay: Toxicity in glucocorticoid-induced Wistar rat osteoporosis model assessed as effect on platelets at 30 mg/kg/day, po administered six times a week for 3 months; format: organism-based; set-up: route oral; conditions: in vivo
[3] = Upregulation of BMP-2 expression in mouse MC3T3-E1 cells at 4 uM after 24 hrs by luciferase reporter gene assay relative to control; format: functional, cell-based
Rattus norvegicus [4] = assay: Toxicity in glucocorticoid-induced Wistar rat osteoporosis model assessed as effect on glucose level at 30 mg/kg/day, po administered six times a week for 3 months; format: organism-based; set-up: route oral; conditions: in vivo
Rattus norvegicus [5] = assay: Toxicity in glucocorticoid-induced Wistar rat osteoporosis model assessed as effect on red blood cell distribution width at 30 mg/kg/day, po administered six times a week for 3 months; format: organism-based; set-up: route oral; conditions: in vivo
Rattus norvegicus [6] = assay: Toxicity in glucocorticoid-induced Wistar rat osteoporosis model assessed as effect on hemoglobin at 30 mg/kg/day, po administered six times a week for 3 months; format: organism-based; set-up: route oral; conditions: in vivo
Rattus norvegicus [7] = assay: Toxicity in glucocorticoid-induced Wistar rat osteoporosis model assessed as effect on creatinine level at 30 mg/kg/day, po administered six times a week for 3 months; format: organism-based; set-up: route oral; conditions: in vivo
Rattus norvegicus [8] = assay: Toxicity in glucocorticoid-induced Wistar rat osteoporosis model assessed as effect on blood urea nitrogen level at 30 mg/kg/day, po administered six times a week for 3 months; format: organism-based; set-up: route oral; conditions: in vivo
Rattus norvegicus [9] = assay: Toxicity in glucocorticoid-induced Wistar rat osteoporosis model assessed as effect on total bilirubin level at 30 mg/kg/day, po administered six times a week for 3 months; format: organism-based; set-up: route oral; conditions: in vivo
Rattus norvegicus [10] = assay: Antiosteoporotic activity in glucocorticoid-induced Wistar rat osteoporosis model assessed as mineral apposition rate at 30 mg/kg/day, po administered six times a week for 3 months by fluorescence assay (reference value: 1.06 +/- 0.27 micrometer/day); format: functional
Rattus norvegicus [11] = assay: Toxicity in glucocorticoid-induced Wistar rat osteoporosis model assessed as effect on red blood cells at 30 mg/kg/day, po administered six times a week for 3 months; format: organism-based; set-up: route oral; conditions: in vivo
Rattus norvegicus [12] = assay: Toxicity in glucocorticoid-induced Wistar rat osteoporosis model assessed as triglycerides level at 30 mg/kg/day, po administered six times a week for 3 months (reference value: 1.13 +/- 0.69 mmol/L); format: organism-based; set-up: route oral; conditions: in vivo
Rattus norvegicus [13] = assay: Antiosteoporotic activity in glucocorticoid-induced Wistar rat osteoporosis model appearance of turbulent and sparse rarefection of trabecula at 30 mg/kg/day, po administered six times a week for 3 months by toluidine blue staining-based light microscopic analysis; format: functional, organism-based
Rattus norvegicus [14] = assay: Toxicity in glucocorticoid-induced Wistar rat osteoporosis model assessed as effect on total protein level at 30 mg/kg/day, po administered six times a week for 3 months; format: organism-based; set-up: route oral; conditions: in vivo
Rattus norvegicus [15] = assay: Toxicity in glucocorticoid-induced Wistar rat osteoporosis model assessed as neutrophilic granulocytes level at 30 mg/kg/day, po administered six times a week for 3 months (reference value: 31.95 +/- 8.33%); format: organism-based; set-up: route oral; conditions: in vivo
Rattus norvegicus [16] = assay: Toxicity in glucocorticoid-induced Wistar rat osteoporosis model assessed as effect on albumin level at 30 mg/kg/day, po administered six times a week for 3 months; format: organism-based; set-up: route oral; conditions: in vivo
Rattus norvegicus [17] = assay: Antiosteoporotic activity in glucocorticoid-induced Wistar rat osteoporosis model assessed as trabecula formation surface at 30 mg/kg/day, po administered six times a week for 3 months by fluorescence assay (reference value: 7.82 +/- 2.46%); format: functional
Rattus norvegicus [18] = assay: Toxicity in glucocorticoid-induced Wistar rat osteoporosis model assessed as aspartate transaminase level at 30 mg/kg/day, po administered six times a week for 3 months (reference value: 177.55 +/- 116.98 U/L); format: organism-based; set-up: route oral; conditions: in vivo
Rattus norvegicus [19] = assay: Antiosteoporotic activity in glucocorticoid-induced Wistar rat osteoporosis model assessed as trabecular bone volume at 30 mg/kg/day, po administered six times a week for 3 months by fluorescence assay (reference value: 33.09 +/- 5.15%); format: functional, Trabecula
Rattus norvegicus [20] = assay: Toxicity in glucocorticoid-induced Wistar rat osteoporosis model assessed as effect on mean corpuscular hemoglobin concentration at 30 mg/kg/day, po administered six times a week for 3 months; format: organism-based; set-up: route oral; conditions: in vivo
Rattus norvegicus [21] = assay: Antiosteoporotic activity in glucocorticoid-induced Wistar rat osteoporosis model assessed as trabecula resorption surface at 30 mg/kg/day, po administered six times a week for 3 months by fluorescence assay (reference value: 7.22 +/- 2.04%); format: functional
Rattus norvegicus [22] = assay: Toxicity in glucocorticoid-induced Wistar rat osteoporosis model assessed as effect on mean corpuscular volume at 30 mg/kg/day, po administered six times a week for 3 months; format: organism-based; set-up: route oral; conditions: in vivo
Rattus norvegicus [23] = assay: Toxicity in glucocorticoid-induced Wistar rat osteoporosis model assessed as effect on red blood cell specific volume at 30 mg/kg/day, po administered six times a week for 3 months; format: organism-based; set-up: route oral; conditions: in vivo
Rattus norvegicus [24] = assay: Toxicity in glucocorticoid-induced Wistar rat osteoporosis model assessed as alanine transaminase level at 30 mg/kg/day, po administered six times a week for 3 months (reference value: 43.73 +/- 36.21 U/L); format: organism-based; set-up: route oral; conditions: in vivo
Rattus norvegicus [25] = assay: Toxicity in glucocorticoid-induced Wistar rat osteoporosis model assessed as lymph level at 30 mg/kg/day, po administered six times a week for 3 months (reference value: 50.35 +/- 12.96%); format: organism-based; set-up: route oral; conditions: in vivo
[26] = Upregulation of BMP-2 expression in mouse MC3T3-E1 cells at 0.4 uM after 24 hrs by luciferase reporter gene assay relative to control; format: functional, cell-based
Rattus norvegicus [27] = assay: Toxicity in glucocorticoid-induced Wistar rat osteoporosis model assessed as neutrophilic granulocytes level at 2.5 mg/kg/day, im administered twice each week for 8 weeks (reference value: 31.95 +/- 8.33%); format: organism-based; set-up: route intramuscular; conditions: in vivo, 1344 h
Rattus norvegicus [28] = assay: Antiosteoporotic activity in glucocorticoid-induced Wistar rat osteoporosis model assessed as trabecula resorption surface at 2.5 mg/kg/day, im administered twice each week for 8 weeks by fluorescence assay (reference value: 7.22 +/- 2.04%); format: functional; conditions: route intramuscular
Rattus norvegicus [29] = assay: Toxicity in glucocorticoid-induced Wistar rat osteoporosis model assessed as white blood cells at 2.5 mg/kg/day, im administered twice each week for 8 weeks (reference value: 6.28 +/- 2.78 x 10^9/L); format: organism-based; set-up: route intramuscular; conditions: in vivo, 1344 h
Rattus norvegicus [30] = assay: Antiosteoporotic activity in glucocorticoid-induced Wistar rat osteoporosis model assessed as trabecula formation surface at 2.5 mg/kg/day, im administered twice each week for 8 weeks by fluorescence assay (reference value: 7.82 +/- 2.46%); format: functional; conditions: route intramuscular
Rattus norvegicus [31] = assay: Antiosteoporotic activity in glucocorticoid-induced Wistar rat osteoporosis model assessed as mineral apposition rate at 2.5 mg/kg/day, im administered twice each week for 8 weeks by fluorescence assay (reference value: 1.06 +/- 0.27 micrometer/day); format: functional; conditions: route intramuscular
Rattus norvegicus [32] = assay: Antiosteoporotic activity in glucocorticoid-induced Wistar rat osteoporosis model assessed as appearance of turbulent and sparse rarefection of trabecula at 2.5 mg/kg/day, im administered twice each week for 8 weeks by toluidine blue staining-based light microscopic analysis; format: functional, organism-based
Rattus norvegicus [33] = assay: Toxicity in glucocorticoid-induced Wistar rat osteoporosis model assessed as lymph level at 2.5 mg/kg/day, im administered twice each week for 8 weeks (reference value: 50.35 +/- 12.96%); format: organism-based; set-up: route intramuscular; conditions: in vivo, 1344 h
Rattus norvegicus [34] = assay: Toxicity in glucocorticoid-induced Wistar rat osteoporosis model assessed as aspartate transaminase level at 2.5 mg/kg/day, im administered twice each week for 8 weeks (reference value: 177.55 +/- 116.98 U/L); format: organism-based; set-up: route intramuscular; conditions: in vivo, 1344 h
Rattus norvegicus [35] = assay: Toxicity in glucocorticoid-induced Wistar rat osteoporosis model assessed as alanine transaminase level at 2.5 mg/kg/day, im administered twice each week for 8 weeks (reference value: 43.73 +/- 36.21 U/L); format: organism-based; set-up: route intramuscular; conditions: in vivo, 1344 h
Rattus norvegicus [36] = assay: Antiosteoporotic activity in glucocorticoid-induced Wistar rat osteoporosis model assessed as trabecular bone volume at 2.5 mg/kg/day, im administered twice each week for 8 weeks by fluorescence assay (reference value: 33.09 +/- 5.15%); format: functional, Trabecula; conditions: route intramuscular
Rattus norvegicus [37] = assay: Toxicity in glucocorticoid-induced Wistar rat osteoporosis model assessed as triglycerides level at 2.5 mg/kg/day, im administered twice each week for 8 weeks (reference value: 1.13 +/- 0.69 mmol/L); format: organism-based; set-up: route intramuscular; conditions: in vivo, 1344 h

**Q.** Which results are given for `CC(=O)c1cc2ccc(C(=O)O)cc2s1`?
**A.** Activity (Rattus norvegicus [1]): 3.55 ×10⁹ /L; Activity (Rattus norvegicus [2]): Non-toxic; Activity [3]: 102%; Activity (Rattus norvegicus [4]): Non-toxic; Activity (Rattus norvegicus [5]): Non-toxic; Activity (Rattus norvegicus [6]): Non-toxic; Activity (Rattus norvegicus [7]): Non-toxic; Activity (Rattus norvegicus [8]): Non-toxic; Activity (Rattus norvegicus [9]): Non-toxic; Activity (Rattus norvegicus [10]): 0.97 micrometer/day; Activity (Rattus norvegicus [11]): Non-toxic; Activity (Rattus norvegicus [12]): 0.53 mmol/L; Activity (Rattus norvegicus [13]): inactive; Activity (Rattus norvegicus [14]): Non-toxic; Activity (Rattus norvegicus [15]): 47.16%; Activity (Rattus norvegicus [16]): Non-toxic; Activity (Rattus norvegicus [17]): 4.61%; Activity (Rattus norvegicus [18]): 123.33 U/L; Activity (Rattus norvegicus [19]): 20.5%; Activity (Rattus norvegicus [20]): Non-toxic; Activity (Rattus norvegicus [21]): 10.9%; Activity (Rattus norvegicus [22]): Non-toxic; Activity (Rattus norvegicus [23]): Non-toxic; Activity (Rattus norvegicus [24]): 31.17 U/L; Activity (Rattus norvegicus [25]): 35.72%

**Q.** For `CC[C@H](C)C(=O)O[C@H]1C[C@@H](C)C=C2C=C[C@H](C)[C@H](CC[C@@H]3C[C@@H](O)CC(=O)O3)[C@H]21`, which Activity [26] is on record?
**A.** Its Activity is 20.9%.

**Q.** Which Activity (Rattus norvegicus [27]) does the source give for `C[C@@H]1C[C@H]2[C@@H]3CCC4=CC(=O)C=C[C@]4(C)[C@@]3(F)[C@@H](O)C[C@]2(C)[C@@]1(O)C(=O)CO` [DEXAMETHASONE] here?
**A.** Its Activity is 53.03%.

**Q.** What about the Activity (Rattus norvegicus [28]) of the same molecule?
**A.** The Activity was 11.8%.

**Q.** What about the Activity (Rattus norvegicus [29]) of the same molecule?
**A.** The Activity was 6.58 ×10⁹ /L.

**Q.** What about the Activity (Rattus norvegicus [30]) of the same molecule?
**A.** Its Activity is 4.49%.

**Q.** And the Activity (Rattus norvegicus [31])?
**A.** Its Activity is 0.76 micrometer/day.

**Q.** And the Activity (Rattus norvegicus [32])?
**A.** Its Activity is “inactive”.

**Q.** And the Activity (Rattus norvegicus [33])?
**A.** The Activity was 25.77%.

**Q.** And the Activity (Rattus norvegicus [34])?
**A.** The Activity was 213 U/L.

**Q.** What about the Activity (Rattus norvegicus [35]) of the same molecule?
**A.** The Activity was 63.64 U/L.

**Q.** What about the Activity (Rattus norvegicus [36]) of the same molecule?
**A.** The Activity was 18.46%.

**Q.** And the Activity (Rattus norvegicus [37])?
**A.** Its Activity is 1.63 mmol/L.
